Values quoted from earlier work, collected in patent US20120157536A1, “COMPOSITION FOR TRANSDERMAL ADMINISTRATION OF NON-STEROIDAL ANTI-FLAMMATORY DRUG” (Polytherapeutics, Inc., priority 2010, published 2012).

Diclofenac Clearance, Cl (Goodman & Gilman): 0.252 L/h/kg
Compound: O=C(O)Cc1ccccc1Nc1c(Cl)cccc1Cl [Diclofenac, 2-(2,6-dichloro-anilino)-benzeneacetic acid]
Minimum effective diclofenac blood concentration (Nishihata et al. 1988): 50 ng/mL
